Values of other authors, collected in patent US12116550B2, “Process of making a liquid conditioning composition” (The Procter & Gamble Company, priority 2020, dated 2024).

Settings: nonionic surfactants of Table A, value reported for the trade product

Row | Reported HLB | Substance
1 | 4.7 | Sorbitan isostearate [Span 120]
2 | 4.3 | Sorbitan monooleate [Span 80]
3 | 6.7 | Sorbitan monopalmitate [Span 40]
4 | 4.7 | Sorbitan monostearate [Span 60]
